Test results: patent publication US20250304644A1, “PEPTIDES TRIPLE AGONISTS OF GIP, GLP-1 AND GLP-2” (BAINAN BIOTECH APS, priority 2021, published 2025)
Where a SMILES comes first, the peptide text is derived from it. [ ]: non-standard residue; d: D form. The star is where a group is joined. Decanoyl = CCCCCCCCCC(=O)*; Aib = CC(C)(N)C(=O)O

Experiments:
Type in all cases: cell-based
human GIPR = molecular target: T1, human GIPR (Homo sapiens, UniProt P48546); experiment: cAMP assay (HitHunter) in transiently transfected COS-7 cells expressing human GIPR; conditions: for Emax: COS-7, normalized to highest concentration of the endogenous ligand, read-out: Efficacy GIPR (Emax); for EC50: cAMP, COS-7 cells, human GIPR
T1 construct: host or cells: COS-7
T1 sequence (P48546 22-466): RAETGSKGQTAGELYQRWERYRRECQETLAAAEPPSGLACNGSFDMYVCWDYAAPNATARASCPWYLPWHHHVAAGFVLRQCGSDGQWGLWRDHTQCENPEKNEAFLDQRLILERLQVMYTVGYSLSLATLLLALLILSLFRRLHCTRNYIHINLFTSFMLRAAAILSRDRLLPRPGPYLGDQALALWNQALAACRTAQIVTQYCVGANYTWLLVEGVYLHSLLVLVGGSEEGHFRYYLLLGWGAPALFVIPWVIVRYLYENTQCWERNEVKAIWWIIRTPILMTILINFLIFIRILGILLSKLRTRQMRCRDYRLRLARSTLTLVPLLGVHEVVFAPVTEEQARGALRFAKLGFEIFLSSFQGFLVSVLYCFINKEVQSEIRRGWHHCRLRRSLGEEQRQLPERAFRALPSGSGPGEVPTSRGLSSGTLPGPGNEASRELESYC
Procedure: (§1) The next day the assay was initiated by washing with HEPES buffered saline (HBS) and followed by an incubation step with assay buffer (HBS added 1 mM isobutyl-1-methylxanthine (IBMX)) for 30 min at 37° C. The ligands were then added and incubated for an additional 30 min at 37° C. After ligand incubation, the HitHunter® CAMP assay (Eurofins DiscoverX, Fremont, […] USA) was carried out according to the manufacturer's instructions. […] The potencies (EC50 values) were determined by nonlinear regression using GraphPad Prism 9 (San Diego, California, USA). Sigmoid curves were fitted logistically. The efficacies (Emax values) were determined by normalization to the highest concentration applied of the endogenous ligand for each receptor.

human GLP-1R = molecular target: T2, human GLP-1R (Homo sapiens, UniProt P43220); experiment: cAMP assay (HitHunter) in transiently transfected COS-7 cells expressing human GLP-1R; conditions: for Emax: COS-7, normalized to highest concentration of the endogenous ligand, read-out: Efficacy GLP-1R (Emax); for EC50: cAMP, COS-7 cells, human GLP-1R, read-out: EC50 (nM) GLP-1R
T2 construct: host or cells: COS-7
Procedure: as §1

human GLP-2R = molecular target: T3, human GLP-2R (Homo sapiens, UniProt O95838); experiment: cAMP assay (HitHunter) in transiently transfected COS-7 cells expressing human GLP-2R; conditions: for Emax: COS-7, normalized to highest concentration of the endogenous ligand, read-out: Efficacy GLP-2R (Emax); for EC50: cAMP, COS-7 cells, human GLP-2R, read-out: EC50 (nM) GLP-2R
T3 construct: host or cells: COS-7
T3 sequence (O95838 1-553): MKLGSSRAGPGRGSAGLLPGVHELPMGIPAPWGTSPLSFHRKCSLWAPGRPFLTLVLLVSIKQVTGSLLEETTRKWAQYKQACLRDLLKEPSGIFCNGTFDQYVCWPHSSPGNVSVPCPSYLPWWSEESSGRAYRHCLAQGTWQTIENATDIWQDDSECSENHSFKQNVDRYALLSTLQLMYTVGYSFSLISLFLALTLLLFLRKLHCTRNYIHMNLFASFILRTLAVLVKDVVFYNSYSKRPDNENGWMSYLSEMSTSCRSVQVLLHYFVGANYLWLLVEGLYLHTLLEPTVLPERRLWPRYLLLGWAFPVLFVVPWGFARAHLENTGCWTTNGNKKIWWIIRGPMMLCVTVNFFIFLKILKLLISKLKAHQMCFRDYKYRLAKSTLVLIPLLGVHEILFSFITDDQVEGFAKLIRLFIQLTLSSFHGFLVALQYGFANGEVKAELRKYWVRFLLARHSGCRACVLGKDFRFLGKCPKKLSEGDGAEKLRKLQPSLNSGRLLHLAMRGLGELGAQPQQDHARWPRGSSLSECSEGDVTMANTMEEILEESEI
Procedure: as §1

T2 sequence (P43220 24-463): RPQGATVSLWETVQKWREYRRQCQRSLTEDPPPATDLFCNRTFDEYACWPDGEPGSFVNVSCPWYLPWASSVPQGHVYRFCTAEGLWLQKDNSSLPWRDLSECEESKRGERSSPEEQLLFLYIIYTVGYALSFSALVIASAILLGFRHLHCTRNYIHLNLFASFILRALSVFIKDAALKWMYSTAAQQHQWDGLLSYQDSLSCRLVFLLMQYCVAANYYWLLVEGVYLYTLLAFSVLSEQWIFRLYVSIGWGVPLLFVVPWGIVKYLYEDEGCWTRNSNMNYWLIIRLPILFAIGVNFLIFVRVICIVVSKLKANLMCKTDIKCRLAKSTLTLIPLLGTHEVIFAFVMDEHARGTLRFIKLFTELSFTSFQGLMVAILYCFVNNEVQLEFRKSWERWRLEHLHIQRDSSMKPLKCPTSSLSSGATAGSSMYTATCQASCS

Structure (SMILES)	Emax (human GIPR)	Emax (human GLP-1R)	Emax (human GLP-2R)	EC50 (human GLP-2R)	EC50 (human GLP-1R)	EC50 (human GIPR)
CCCCCCCCCC(=O)NCCCC[C@H](NC(=O)[C@@H](NC(=O)[C@@H](NC(=O)[C@H](CCCCN)NC(=O)[C@@H](NC(=O)[C@H](CCC(N)=O)NC(=O)[C@@H](NC(=O)[C@H](CC(C)C)NC(=O)[C@H](Cc1c[nH]c2ccccc12)NC(=O)[C@H](CCC(=O)O)NC(=O)[C@@H](NC(=O)[C@H](Cc1ccccc1)NC(=O)[C@H](CC(=O)O)NC(=O)[C@H](CCCNC(=N)N)NC(=O)[C@H](C)NC(=O)[C@H](C)NC(=O)[C@H](CC(C)C)NC(=O)[C@H](CC(N)=O)NC(=O)[C@H](CC(=O)O)NC(=O)[C@H](CC(C)C)NC(=O)[C@@H](NC(=O)[C@@H](NC(=O)[C@H](CO)NC(=O)[C@H](Cc1ccc(O)cc1)NC(=O)[C@H](CC(=O)O)NC(=O)[C@H](CO)NC(=O)[C@@H](NC(=O)[C@H](Cc1ccccc1)NC(=O)[C@@H](NC(=O)CNC(=O)[C@H](CC(=O)O)NC(=O)C(C)(C)NC(=O)[C@@H](N)Cc1c[nH]cn1)[C@@H](C)O)[C@@H](C)CC)[C@@H](C)O)[C@@H](C)CC)[C@@H](C)CC)[C@@H](C)CC)[C@@H](C)O)[C@@H](C)CC)[C@@H](C)O)C(N)=O [Compound 9]	104%	105%	108%	11.2 nM	–	–
CCCCCCCCCC(=O)NCCCC[C@H](NC(=O)[C@@H](NC(=O)[C@@H](NC(=O)[C@H](CCCCN)NC(=O)[C@@H](NC(=O)[C@H](CCC(N)=O)NC(=O)[C@@H](NC(=O)[C@H](CC(C)C)NC(=O)[C@H](Cc1c[nH]c2ccccc12)NC(=O)[C@H](CC(N)=O)NC(=O)[C@@H](NC(=O)[C@H](Cc1ccccc1)NC(=O)[C@H](CC(=O)O)NC(=O)[C@H](CCCNC(=N)N)NC(=O)[C@H](C)NC(=O)[C@H](C)NC(=O)[C@H](CC(C)C)NC(=O)[C@H](CC(N)=O)NC(=O)[C@H](CC(=O)O)NC(=O)[C@H](CC(C)C)NC(=O)[C@@H](NC(=O)[C@@H](NC(=O)[C@H](CO)NC(=O)[C@H](Cc1ccc(O)cc1)NC(=O)[C@H](CC(=O)O)NC(=O)[C@H](CO)NC(=O)[C@@H](NC(=O)[C@H](Cc1ccccc1)NC(=O)[C@@H](NC(=O)CNC(=O)[C@H](CCC(=O)O)NC(=O)C(C)(C)NC(=O)[C@@H](N)Cc1c[nH]cn1)[C@@H](C)O)[C@@H](C)CC)[C@@H](C)O)[C@@H](C)CC)[C@@H](C)CC)[C@@H](C)CC)[C@@H](C)O)[C@@H](C)CC)[C@@H](C)O)C(N)=O [Compound 11] (H-H[Aib]EGTFISDYSTILDNLAARDFINWLIQTKITK(Decanoyl)-NH2)	89%	76%	68%	25.1 nM	–	–
CCCCCCCCCC(=O)NCCCC[C@H](NC(=O)[C@@H](NC(=O)[C@@H](NC(=O)[C@H](CCCCN)NC(=O)[C@@H](NC(=O)[C@H](CCC(N)=O)NC(=O)[C@@H](NC(=O)[C@H](CC(C)C)NC(=O)[C@H](Cc1c[nH]c2ccccc12)NC(=O)[C@H](CC(N)=O)NC(=O)[C@@H](NC(=O)[C@H](Cc1ccccc1)NC(=O)[C@H](CC(=O)O)NC(=O)[C@H](CCCNC(=N)N)NC(=O)[C@H](C)NC(=O)[C@H](C)NC(=O)[C@H](CC(C)C)NC(=O)[C@H](CC(N)=O)NC(=O)[C@H](CC(=O)O)NC(=O)[C@H](CC(C)C)NC(=O)[C@H](CCC(=O)O)NC(=O)[C@@H](NC(=O)[C@H](CO)NC(=O)[C@H](Cc1ccc(O)cc1)NC(=O)[C@H](CC(=O)O)NC(=O)[C@H](CO)NC(=O)[C@@H](NC(=O)[C@H](Cc1ccccc1)NC(=O)[C@@H](NC(=O)CNC(=O)[C@H](CC(=O)O)NC(=O)C(C)(C)NC(=O)[C@@H](N)Cc1c[nH]cn1)[C@@H](C)O)[C@@H](C)CC)[C@@H](C)O)[C@@H](C)CC)[C@@H](C)CC)[C@@H](C)O)[C@@H](C)CC)[C@@H](C)O)C(N)=O [Compound 13] (H-H[Aib]DGTFISDYSTELDNLAARDFINWLIQTKITK(Decanoyl)-NH2)	117%	85%	86%	25.1 nM	25.1 nM	–
CCCCCCCCCC(=O)NCCCC[C@H](NC(=O)[C@@H](NC(=O)[C@@H](NC(=O)[C@H](CCCCN)NC(=O)[C@@H](NC(=O)[C@H](CCC(N)=O)NC(=O)[C@@H](NC(=O)[C@H](CC(C)C)NC(=O)[C@H](Cc1c[nH]c2ccccc12)NC(=O)[C@H](CC(N)=O)NC(=O)[C@@H](NC(=O)[C@H](Cc1ccccc1)NC(=O)[C@H](CC(=O)O)NC(=O)[C@H](CCCNC(=N)N)NC(=O)[C@H](C)NC(=O)[C@H](C)NC(=O)[C@H](CC(C)C)NC(=O)[C@H](CC(N)=O)NC(=O)[C@H](CCC(=O)O)NC(=O)[C@H](CC(C)C)NC(=O)[C@@H](NC(=O)[C@@H](NC(=O)[C@H](CO)NC(=O)[C@H](Cc1ccc(O)cc1)NC(=O)[C@H](CC(=O)O)NC(=O)[C@H](CO)NC(=O)[C@@H](NC(=O)[C@H](Cc1ccccc1)NC(=O)[C@@H](NC(=O)CNC(=O)[C@H](CC(=O)O)NC(=O)C(C)(C)NC(=O)[C@@H](N)Cc1c[nH]cn1)[C@@H](C)O)[C@@H](C)CC)[C@@H](C)O)[C@@H](C)CC)[C@@H](C)CC)[C@@H](C)CC)[C@@H](C)O)[C@@H](C)CC)[C@@H](C)O)C(N)=O [Compound 7] (H-H[Aib]DGTFISDYSTILENLAARDFINWLIQTKITK(Decanoyl)-NH2)	96%	95%	97%	–	2.82 nM	0.794 nM
CCCCCCCCCC(=O)NCCCC[C@H](NC(=O)[C@@H](NC(=O)[C@@H](NC(=O)[C@H](CCCCN)NC(=O)[C@@H](NC(=O)[C@H](CCC(N)=O)NC(=O)[C@@H](NC(=O)[C@H](CC(C)C)NC(=O)[C@H](Cc1c[nH]c2ccccc12)NC(=O)[C@H](CC(N)=O)NC(=O)[C@@H](NC(=O)[C@H](Cc1ccccc1)NC(=O)[C@H](CC(=O)O)NC(=O)[C@H](CCCNC(=N)N)NC(=O)[C@H](C)NC(=O)[C@H](C)NC(=O)[C@H](CC(C)C)NC(=O)[C@H](CC(C)C)NC(=O)[C@H](CC(=O)O)NC(=O)[C@H](CC(C)C)NC(=O)[C@@H](NC(=O)[C@@H](NC(=O)[C@H](CO)NC(=O)[C@H](Cc1ccc(O)cc1)NC(=O)[C@H](CC(=O)O)NC(=O)[C@H](CO)NC(=O)[C@@H](NC(=O)[C@H](Cc1ccccc1)NC(=O)[C@@H](NC(=O)CNC(=O)[C@H](CC(=O)O)NC(=O)C(C)(C)NC(=O)[C@@H](N)Cc1c[nH]cn1)[C@@H](C)O)[C@@H](C)CC)[C@@H](C)O)[C@@H](C)CC)[C@@H](C)CC)[C@@H](C)CC)[C@@H](C)O)[C@@H](C)CC)[C@@H](C)O)C(N)=O [Compound 4] (H-H[Aib]DGTFISDYSTILDLLAARDFINWLIQTKITK(Decanoyl)-NH2)	102%	82%	92%	–	25.1 nM	1.12 nM
CCCCCCCCCC(=O)NCCCC[C@H](NC(=O)[C@@H](NC(=O)[C@@H](NC(=O)[C@H](CCCCN)NC(=O)[C@@H](NC(=O)[C@H](CCC(N)=O)NC(=O)[C@@H](NC(=O)[C@H](CC(C)C)NC(=O)[C@H](Cc1c[nH]c2ccccc12)NC(=O)[C@H](CC(N)=O)NC(=O)[C@@H](NC(=O)[C@H](Cc1ccccc1)NC(=O)[C@H](CC(=O)O)NC(=O)[C@H](CCCNC(=N)N)NC(=O)[C@H](C)NC(=O)[C@H](C)NC(=O)[C@H](CC(C)C)NC(=O)[C@H](CC(N)=O)NC(=O)[C@H](CC(=O)O)NC(=O)[C@H](CC(C)C)NC(=O)[C@@H](NC(=O)[C@@H](NC(=O)[C@H](CO)NC(=O)[C@H](Cc1ccc(O)cc1)NC(=O)[C@H](CC(=O)O)NC(=O)[C@H](CO)NC(=O)[C@@H](NC(=O)[C@H](Cc1ccccc1)NC(=O)[C@@H](NC(=O)CNC(=O)[C@H](CC(=O)O)NC(=O)C(C)(C)NC(=O)[C@@H](N)Cc1c[nH]cn1)[C@@H](C)O)[C@@H](C)CC)[C@@H](C)O)[C@@H](C)CC)[C@@H](C)CC)[C@@H](C)CC)[C@@H](C)O)[C@@H](C)CC)[C@@H](C)O)C(N)=O (single isomer, unassigned) [Compound 6]	97%	96%	99%	–	–	–
